Paper PMC9179981 (International Journal of Molecular Sciences, 2022)
Where two headings read alike, the source gives them in different places.

Legend:
[1] = target: T1, AChE (EC 3.1.1.7, Electrophorus electricus) (Electrophorus electricus, UniProt O42275); experiment: biochemical
T1 construct: purchased Sigma Aldrich (Steinheim, Germany)
Description: (§1) Ellman’s assay was used to assess the inhibitory activity of the newly synthesized compounds towards AChE and BuChE. […] An evaluation of the inhibitory potency towards AChE (EC 3.1.1.7, Electrophorus electricus) and BuChE (EC 3.1.1.8, equine serum) was performed using a modified spectrophotometric Ellman’s method. All necessary reagents for the study were purchased from Sigma Aldrich (Steinheim, Germany). […] The phosphate buffer (pH 8.0) was used as a solvent for reagents. The assay protocol included 14 µL of the tested compound in the nine different concentrations, and 40 µL of substrate acetylthiocholine (ATI) in concentration 1mM or 2mM for AChE and BuChE, respectively. Next, 76 µL of 0.4 mg/mL 5,5′-dithio-bis(2-nitrobenzoic) acid (DTNB) was added to the mixture. In the end, to start the reaction 10 µL of AChE (2U/mL) or BuChE (4U/mL) was added and the solution was mixed and incubated for 10 min. at 37 °C. As a control, instead of the tested compound, we used PBS. […] The experiments were performed independently and in triplicate. Data were expressed as mean ± SD.

[2] = target: T2, BuChE (EC 3.1.1.8, equine serum) (Equus caballus, UniProt P81908); experiment: biochemical; type: biochemical
T2 construct: purchased Sigma Aldrich (Steinheim, Germany); host or cells: equine serum
T2 sequence (P81908 whole entry): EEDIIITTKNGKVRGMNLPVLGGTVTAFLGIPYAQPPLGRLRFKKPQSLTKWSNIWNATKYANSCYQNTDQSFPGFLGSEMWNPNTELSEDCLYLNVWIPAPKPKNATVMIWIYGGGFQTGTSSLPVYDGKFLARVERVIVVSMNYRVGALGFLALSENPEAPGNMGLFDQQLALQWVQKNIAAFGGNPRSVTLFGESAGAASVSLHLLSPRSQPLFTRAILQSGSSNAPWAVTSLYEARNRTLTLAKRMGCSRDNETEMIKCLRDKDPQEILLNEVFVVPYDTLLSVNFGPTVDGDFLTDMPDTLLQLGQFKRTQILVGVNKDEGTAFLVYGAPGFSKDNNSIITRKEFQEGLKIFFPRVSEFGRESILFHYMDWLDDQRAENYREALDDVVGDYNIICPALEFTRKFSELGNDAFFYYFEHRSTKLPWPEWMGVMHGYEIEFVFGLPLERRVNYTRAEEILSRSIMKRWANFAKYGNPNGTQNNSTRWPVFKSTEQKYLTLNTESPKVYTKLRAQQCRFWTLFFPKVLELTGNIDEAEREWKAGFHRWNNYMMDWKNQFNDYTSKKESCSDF
Description: as §1

[3] = ORAC-FL antioxidant activity assay; settings: Trolox equivalents, mean ± SD; compounds 1–13 µM, tacrine 1–10 µM; pH 7.4
BuChE = target: T3, BuChE (Equus caballus, UniProt P81908); experiment: Kinetic characterization of BuChE inhibition (Lineweaver-Burk); type: biochemical, equine; settings: Lineweaver-Burk plot; inhibitor 0, 150, 200, 250 nM
T3 construct: purchased Sigma Aldrich (Steinheim, Germany); host or cells: equine serum
T3 sequence (P81908 whole entry): as above
Description: Lineweaver–Burk plots were prepared to reveal the type of inhibition. The experiments were performed in triplicate.
The protocol of the kinetic study was similar to the previous inhibition study. A phosphate buffer (pH 8.0) was used as the solvent for all reagents. The tested medium consisted of 76 µL DTNB (0.4 mg/mL), 40 µL substrate (ATI) at chosen concentrations (35–350 µM), 10 µL of AChE (2 U/mL) or BuChE (4 U/mL), and 14 µL of the inhibitor. […] For the BuChE kinetic analysis, we used four concentrations of the 3b derivative (0, 150, 200, 250 nM). Changes in absorbance were measured at 412 nm. All experiments were conducted independently and in triplicate. To estimate the type of inhibition, reciprocal plots of 1/V versus 1/[S] were created.

in vitro = settings: human
AChE = target: T4, AChE (Electrophorus electricus, UniProt O42275); experiment: Kinetic characterization of AChE inhibition (Lineweaver-Burk); type: biochemical; settings: Lineweaver-Burk plot; inhibitor 0, 200, 400, 800 nM
T4 construct: purchased Sigma Aldrich (Steinheim, Germany)
T4 sequence (O42275 24-633): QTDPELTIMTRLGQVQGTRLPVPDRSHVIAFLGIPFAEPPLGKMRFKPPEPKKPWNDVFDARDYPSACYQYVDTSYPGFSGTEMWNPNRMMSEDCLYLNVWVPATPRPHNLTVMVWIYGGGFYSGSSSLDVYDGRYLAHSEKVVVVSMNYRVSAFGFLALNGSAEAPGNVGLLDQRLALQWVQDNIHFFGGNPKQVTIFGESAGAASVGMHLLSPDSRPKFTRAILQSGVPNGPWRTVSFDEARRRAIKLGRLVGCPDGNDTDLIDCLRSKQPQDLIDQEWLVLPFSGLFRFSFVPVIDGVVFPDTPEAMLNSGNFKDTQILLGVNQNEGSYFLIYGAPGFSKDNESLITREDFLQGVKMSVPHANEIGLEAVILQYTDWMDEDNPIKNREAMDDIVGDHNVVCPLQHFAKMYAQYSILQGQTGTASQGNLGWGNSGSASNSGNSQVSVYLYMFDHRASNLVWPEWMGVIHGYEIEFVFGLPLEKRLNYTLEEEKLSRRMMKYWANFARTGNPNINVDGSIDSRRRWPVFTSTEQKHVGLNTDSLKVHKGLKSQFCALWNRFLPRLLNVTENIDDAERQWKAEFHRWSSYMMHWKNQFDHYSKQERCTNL
Description: […]. Lineweaver–Burk plots were prepared to reveal the type of inhibition. The experiments were performed in triplicate.
. The protocol of the kinetic study was similar to the previous inhibition study. A phosphate buffer (pH 8.0) was used as the solvent for all reagents. […]. For the BuChE kinetic analysis, we used four concentrations of the 3b derivative (0, 150, 200, 250 nM). Changes in absorbance were measured at 412 nm. All experiments were conducted independently and in triplicate. […]

[4] = Ellman's method, pH 8.0, 37 °C, mean ± SD of three independent experiments, read-out: AChE IC50 ± SD
[5] = Ellman's method, pH 8.0, 37 °C, mean ± SD of three independent experiments

T1 sequence (O42275 24-633): as above

Row | Compound | IC50 [1, 4] | Selectivity for AChE ([1]; IC50(BuChE)/IC50(AChE)) | IC50 [2, 5] | Selectivity for BuChE ([2]; IC50(AChE)/IC50(BuChE)) | ORAC (TE) [3] | other results
1 | Cl.O=C(NCCCCCCCCNc1c2c(nc3ccccc13)CCC2)c1c2ccccc2nc2ccccc12 [Compound 3g, N-[8-({1H,2H,3H-cyclopenta[b]quinolin-9-yl}amino)octyl]acridine-9-carboxamide hydrochloride] | 701 ± 67.1 nM | 0.25 | 178 ± 17 nM | 3.95 | – | –
2 | Cl.O=C(NCCCCCCCCCNc1c2c(nc3ccccc13)CCC2)c1c2ccccc2nc2ccccc12 [Compound 3h, N-[9-({1H,2H,3H-cyclopenta[b]quinolin-9-yl}amino)nonyl]acridine-9-carboxamide hydrochloride] | 669 ± 83.4 nM | 0.34 | – | 2.95 | – | –
3 | Cl.O=C(NCCCCCNc1c2c(nc3ccccc13)CCC2)c1c2ccccc2nc2ccccc12 [Compound 3d, N-[5-({1H,2H,3H-cyclopenta[b]quinolin-9-yl}amino)pentyl]acridine-9-carboxamide hydrochloride] | – | 0.043 | 173 ± 18.9 nM | 23.39 | – | –
4 | Cl.O=C(NCCNc1c2c(nc3ccccc13)CCC2)c1c2ccccc2nc2ccccc12 [Compound 3a, N-[2-({1H,2H,3H-cyclopenta[b]quinolin-9-yl}amino)ethyl]acridine-9-carboxamide hydrochloride] | 8620 ± 606 nM | 0.063 | 540 ± 66.9 nM | 15.96 | – | –
5 | Nc1c2c(nc3ccccc13)CCCC2 [Tacrine, tacrine, reference compound] | – | – | – | – | 0.0132 ± 0.009 TE | –
6 | Cl.O=C(NCCCCCCNc1c2c(nc3ccccc13)CCC2)c1c2ccccc2nc2ccccc12 [Compound 3e, N-[6-({1H,2H,3H-cyclopenta[b]quinolin-9-yl}amino)hexyl]acridine-9-carboxamide hydrochloride] | 395 ± 36.1 nM | 0.49 | – | 2.02 | – | –
7 | Cl.O=C(NCCCCNc1c2c(nc3ccccc13)CCC2)c1c2ccccc2nc2ccccc12 [Compound 3c, N-[4-({1H,2H,3H-cyclopenta[b]quinolin-9-yl}amino)butyl]acridine-9-carboxamide hydrochloride] | 273 ± 22.1 nM | 0.73 | 200 ± 18.1 nM | 1.36 | – | –
8 | c1ccc2c(NCCCCCCCNc3c4c(nc5ccccc35)CCCC4)c3c(nc2c1)CCCC3 [Bistacrine, bistacrine, reference compound] | – | – | – | – | – | Selectivity for AChE [1]: 0.56; IC50 ([1]; pH 8, read-out: AChE IC50 ± SD): 405 ± 28.6 nM; Selectivity for BuChE [2]: 1.79; IC50 ([2]; pH 8, read-out: BuChE IC50 ± SD): 226 ± 30.4 nM
9 | Cl.O=C(NCCCNc1c2c(nc3ccccc13)CCC2)c1c2ccccc2nc2ccccc12 [Compound 3b, N-[3-({1H,2H,3H-cyclopenta[b]quinolin-9-yl}amino)propyl]acridine-9-carboxamide hydrochloride] | – | – | 104 ± 7.63 nM | – | 0.4614 ± 0.056 TE | IC50 [1]: 272 ± 35.1 nM; Type of BuChE inhibition (BuChE): mixed type of inhibition; IC50 at 24 h (in vitro): 32000 ± 2050 nM
10 | Cl.O=C(NCCCCCCCNc1c2c(nc3ccccc13)CCC2)c1c2ccccc2nc2ccccc12 [Compound 3f, N-[7-({1H,2H,3H-cyclopenta[b]quinolin-9-yl}amino)heptyl]acridine-9-carboxamide hydrochloride] | 113 ± 7.14 nM | 1.79 | 204 ± 16 nM | 0.56 | 0.3254 ± 0.014 TE | Type of AChE inhibition (AChE): mixed type of inhibition; IC50 at 24 h (in vitro; human hepatic stellate cells (HSCs)): 49800 ± 4360 nM
